Laboratory results reported in US10702506B2, “Small molecule inhibitors of pendrin ion exchange and pharmaceutical compositions” (THE REGENTS OF THE UNIVERSITY OF CALIFORNIA, priority 2016, dated 2020).

Target: T1, pendrin (Homo sapiens, UniProt O43511)
T1 sequence (O43511 1-780): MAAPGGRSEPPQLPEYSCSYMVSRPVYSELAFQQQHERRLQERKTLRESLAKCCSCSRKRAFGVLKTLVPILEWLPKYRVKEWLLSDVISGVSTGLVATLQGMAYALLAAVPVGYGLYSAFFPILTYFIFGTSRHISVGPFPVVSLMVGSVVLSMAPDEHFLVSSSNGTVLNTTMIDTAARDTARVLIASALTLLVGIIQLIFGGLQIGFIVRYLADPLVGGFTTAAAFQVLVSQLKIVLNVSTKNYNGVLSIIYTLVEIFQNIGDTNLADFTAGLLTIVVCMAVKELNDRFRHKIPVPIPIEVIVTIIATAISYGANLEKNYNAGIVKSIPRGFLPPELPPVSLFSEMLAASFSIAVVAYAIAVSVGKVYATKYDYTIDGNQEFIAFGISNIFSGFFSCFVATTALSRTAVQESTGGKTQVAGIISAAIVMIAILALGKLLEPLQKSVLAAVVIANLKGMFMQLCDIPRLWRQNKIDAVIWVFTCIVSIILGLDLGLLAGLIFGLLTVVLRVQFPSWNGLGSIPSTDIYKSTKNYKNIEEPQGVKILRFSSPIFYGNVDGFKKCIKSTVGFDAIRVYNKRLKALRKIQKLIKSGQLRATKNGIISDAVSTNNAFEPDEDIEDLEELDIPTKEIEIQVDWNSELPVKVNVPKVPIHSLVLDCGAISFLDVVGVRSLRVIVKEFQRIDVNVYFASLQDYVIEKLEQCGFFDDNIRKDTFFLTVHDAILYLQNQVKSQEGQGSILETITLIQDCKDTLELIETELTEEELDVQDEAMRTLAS
Experiment: BCECF assay of Cl−/HCO3− exchange in primary HBE and CFBE cell cultures
Type: cell-based
Set-up: endogenous in cells; host or cells: primary human bronchial epithelial cultures from non-CF (HBE) and CF (CFBE) donors, with or without IL-13
Conditions: 25 μM
Procedure: Bronchial tissues were obtained from non-CF (without significant airway disease) and CF subjects following lung transplantation, or from lungs donated for transplantation but subsequently found to be unsuitable for that purpose. Non-CF and CF human bronchial epithelial (HBE and CFBE, respectively) cell cultures were grown at an air-liquid interface as described in detail. At 21 days post-seeding, cells typically formed a tight epithelium (RTE>1000 Ωcm^2). In some experiments, the culture medium was supplemented with 10 ng/ml recombinant human IL-13 (Peprotech, Rocky Hill, N.J.) for 7 days starting at day 21 of culture. […] Pendrin transcript levels in human primary cells were measured by Taqman quantitative PCR using the Hs00166504_m1 probe set (ThermoFisher Scientific, Grand Island, N.Y.) at the UCSF Helen Diller Cancer Center Genome Analysis Core. […]
Cytoplasmic pH (pHi) was measured to assay pendrin-mediated Cl^−/HCO3^− exchange in pendrin-expressing FRT cells and primary cell cultures using the pH-sensitive fluorescent probe BCECF. […] BCECF pH-sensitive fluorescence (490 nm excitation, 535 nm emission) was acquired at 0.5 Hz, with control experiments confirming that BCECF pH-insensitive fluorescence was not altered during exchange protocols. In some experiments pHi changes in the absence of HCO3^− were measured using buffers in which NaCl or Na gluconate replaced NaHCO3^−. […]

- effect on intracellular alkalinization in response to gluconate gradient, IL-13-treated cultures (IL-13-treated): inhibited
- effect on pH changes in response to gluconate gradient, control cultures (no added IL-13, 30 min): not altered
SMILES: Cn1nc(COc2cccc(F)c2)c2c1CCN(C(=O)Nc1ccc(Cl)cc1)C2 [PDSinh-A01]
